What follows are molecules tested on SK-MEL-5 viability, ATP luminescence (CellTiter-Glo), 24 h (assay: cytotoxicity in parental SK-MEL-5 melanoma cells – cell-based, CellTiter-Glo, cherry-picked, set 3, orthogonal assay for MITF inhibitor project, dose response (AID 493240)).

| Compound | AC50 [µM] |
| --- | --- |
| Cc1ccc(C(C)C)c(OCc2nn(CC(=O)c3ccc(Cl)cc3)c3[n+]2CCCCC3)c1 | 18.4 |
| Cc1cc(C)c2nc(N3CCC(C(=O)NCCCN4CC(C)CC(C)C4)CC3)sc2c1 (centres undefined) | 18.3 |
| O=C1C(Nc2ccccc2)=C(N2CCCCC2)C(=O)c2ccccc21 | 12.7 |
| Cc1ccc(Oc2c(C(N)=O)cc([N+](=O)[O-])cc2[N+](=O)[O-])cc1 | 21.8 |
| C(#Cc1ccccc1)C[N+]1(CC#Cc2cccc3ccccc23)CCCC1 | 17.9 |
| O=C(Cn1ncc(Cl)c(Cl)c1=O)NC1CCCCC1 | 20.5 |
| COc1ccccc1NS(=O)(=O)c1cc(NC(=O)c2ccc(Cl)nc2)ccc1Cl | 24.3 |
| CCN(CC)CCNC(=O)c1ccc(NC(=O)c2cn(-c3ccccc3)nc2-c2cccs2)cc1 | 19.9 |
| CC[n+]1c(/C=C/N(C)c2ccccc2)sc2ccc(Cl)cc21 | 19.8 |
| CC1(C)CC(NC(=O)c2ccc(Cl)c(S(=O)(=O)N(Cc3ccccc3)c3ccccc3)c2)CC(C)(C)N1 | 23.3 |
| Nc1c2c(=O)oc(-c3ccccc3)cc2nn1-c1ccccc1 | 2.49 |
| Cc1ccc2nc(N(CCCN(C)C)C(=O)c3ccc4c(c3)CCCC4)sc2c1 | 17.7 |
| CN(C)c1ccc(C2=NOC(CN3C(=O)c4ccccc4S3(=O)=O)C2)cc1 (centres undefined) | < 0.015 |
| Cc1ccc2[nH]c(=O)c(CN(CCCN(C)C)C(=O)Nc3cccc(Cl)c3)cc2c1 | 24.3 |
| O=C(O)/C=C/C(=O)c1ccc2c(c1)CCc1ccccc1-2 | 30.5 |
| O=C(N/N=C/c1ccc([N+](=O)[O-])s1)C(O)c1ccccc1 (centres undefined) | 35.1 |
| CCOc1ccc(-n2c(-c3ccc(OC)cc3)c[n+]3c2CCCCC3)cc1 | 19.6 |
| Cc1c(C(=O)Nc2ccc(S(=O)(=O)N(C)C3CCN(C)CC3)cc2)oc2c(Cl)cccc12 | 29.4 |
| O=[N+]([O-])c1ccc(/C=N/n2cnc3ccccc32)s1 | 17.9 |
| CC1CCC(C(C)C)C(OC(=O)Cn2c(-c3ccc(F)cc3)[n+](C)c3ccccc32)C1 (centres undefined) | 8.02 |
| CCc1ccc(NC2=CC(=O)C(=O)c3ccccc32)cc1 | 5.85 |
| CCOC(=O)Cn1c(=NC(=O)c2ccc([N+](=O)[O-])s2)sc2ccccc21 | 6.03 |
| CN(C)CCCNC(=O)/C(=C\c1ccc(-c2ccc(Br)cc2)o1)NC(=O)c1ccccc1 | 16.7 |
| CCNC1=C(Cl)C(=O)c2ccccc2C1=O | 9.44 |
| O=C(Nc1ccc(Cl)c(S(=O)(=O)N2CCOCC2)c1)c1ccc(OCC2CCCO2)cc1 (centres undefined) | 9.27 |
| Cc1ccc(-c2c[n+](Cc3ccc(Cl)c(Cl)c3)c3n2CCC3)cc1 | 15.3 |
| CC(=O)N(C)C1=C(N2CCOCC2)C(=O)c2ccccc2C1=O | 7.92 |

| Compound | AC50 [µM] |
| --- | --- |
| CC1CCC(C(C)C)C(OC(=O)C[n+]2cc(-c3ccc(Cl)cc3)n3c2CCCCC3)C1 (centres undefined) | 17.2 |
| CC(C)C1CC(CCNCc2ccc(N(C)C)cc2)(c2ccccc2)CCO1 (centres undefined) | 21.9 |
| O=C(COc1ccccc1)N/N=C/c1ccc([N+](=O)[O-])o1 | 22.9 |
| CCCCN(CC)CCCNC(=O)c1cc2c(=O)n(CC)c3ccccc3c2s1 | 23.2 |
| Cc1ccc(NC(=O)CCl)cc1S(=O)(=O)N1CCCCCC1 | 28.3 |
| O=C(CCl)Nc1ccc(-c2ccccc2)cc1 | 21.9 |
| CCN1CCCC1CNC(=O)c1ccc2c(c1)NC(=O)/C(=C\c1ccc(C)cc1)S2 (centres undefined) | 18.7 |
| C#CCCc1ccccc1/C=[N+](/C)[O-] | 20.5 |
| CC1=C(CC(=O)c2ccccc2)C(=O)c2ccccc2C1=O | 7.67 |
| CC1CCN(CC(CS(=O)(=O)c2ccc([N+](=O)[O-])cc2)N2CCC(C)CC2)CC1 (centres undefined) | 27.3 |
| CC(C)n1cc(/C=C/c2cc[n+](C)cc2)c2ccccc21 | 23 |
| CCN(CC)CCNC(=O)C1CCN(S(=O)(=O)c2c(C)noc2/C=C/c2ccccc2F)CC1 | 28.8 |
| O=C1/C(=C/c2ccccc2[N+](=O)[O-])COc2ccccc21 | 34.1 |
| CCN(CC)S(=O)(=O)c1ccc(NC(=O)c2cccnc2Cl)c(NC(=O)c2cccnc2Cl)c1 | 12.3 |
| COc1ccc(C(=O)/C(C#N)=N/Nc2ccc([N+](=O)[O-])cc2)cc1 | 18.5 |
| COc1cc2c(cc1OC)C(c1ccccc1)N(C(=O)CCl)CC2 (centres undefined) | 22.6 |
| O=C1/C(=N\S(=O)(=O)c2cccs2)C([n+]2ccccc2)=C([O-])c2ccccc21 | 5.27 |
| CCN1CCN(c2ccc(NC(=O)c3ccc([N+](=O)[O-])o3)cc2Cl)CC1 | 24.8 |
| COc1ccccc1CNCC(O)Cn1c2ccccc2c2ccccc21 (centres undefined) | 19 |
| O=C(Nc1ccc(N2CCCC2)c(Cl)c1)c1ccc([N+](=O)[O-])o1 | 29.9 |
| Nc1c(N(CCC2=CCCCC2)C(=O)COc2ccc([N+](=O)[O-])cc2)c(=O)[nH]c(=O)n1Cc1ccccc1 | 33.7 |
| CC(C)(C)c1ccc(OCCn2ccccc2=O)cc1 | 28.7 |
| COc1ccccc1NC(=O)c1nc(S(=O)(=O)Cc2ccccc2)ncc1Cl | 29.4 |
| CCOC(=O)c1c(NC(C)=O)sc2c(OCC(O)CNC(C)(C)C)c(Br)ccc12 (centres undefined) | 19.1 |
| O=C(CCl)Nc1cccc(-c2cnc3ccccc3n2)c1 | 17.3 |
| CCS(=O)(=O)c1ccc(N=Nc2ccc(O)c3ncccc23)c(OC)c1 | 33.5 |
| COc1cc(SC)ccc1C(=O)Nc1nc(C)cs1 | 28.4 |
